{"source": "patent US9937210B2", "about": "“Method for isolating fraction having anti-inflammatory or osteoarthritis-inhibiting effects by using oyster shell chips” (Seojin Biotech Co., Ltd., priority 2012, dated 2018)", "key": {"[1]": {"system": "TNF-α", "test": "TNF-α content in blood, ELISA, papain-induced arthritis", "assay_type": "in vivo, mouse", "conditions": "DS 2 mg/kg/bw; fraction 3 100 and 200 mg/kg/bw; oral once daily 20 days", "method": "The experiment animals were adapted in a lab environment for 1 week and then the body weight was measured. Eight animals were assigned to each group to have even body weight. In the normal group, the physiological saline 6 was injected in the right knee joint and then the physiological saline 0.2 ml was orally administered once a day for 20 days. In the treated groups, i.e., a control group, a drug-administered group and a fraction 3-administered group, papain 6 was injected in the right knee joint to induce osteoarthritis. The physiological saline in the control group, Diclofenac sodium (DS, 2 mg/kg/bw) in the drug-administered group, and 100 mg/kg/bw {below, called “fraction 3 (100)”} and 200 mg/kg/bw {below, called “fraction 3 (200)”} in the fraction 3-administered group of Example 2 were orally administered once daily at a predetermined time for 20 days. All subjects were lightly anesthetized with ether at the experiment end day to take a heart blood sample. The blood was centrifuged to isolate a serum. […] The contents of tumor necrosis factor-α (TNF-α), interleukin-1β (IL-1β) and interleukin-6 (IL-6) were measured using enzyme-linked immunosorbent assay (ELISA) kit, respectively. The effect of fraction 3 of the inflammatory cytokine TNF-α produced in large quantities in animals where arthritis was induced by injection of papain, was measured by ELISA method."}, "[2]": {"system": "IL-1β", "test": "Interleukin-1β content in blood, ELISA, papain-induced arthritis", "assay_type": "in vivo, mouse", "conditions": "DS 2 mg/kg/bw; fraction 3 100 and 200 mg/kg/bw; oral once daily 20 days; p<0.05", "method": "The experiment animals were adapted in a lab environment for 1 week and then the body weight was measured. Eight animals were assigned to each group to have even body weight. In the normal group, the physiological saline 6 was injected in the right knee joint and then the physiological saline 0.2 ml was orally administered once a day for 20 days. In the treated groups, i.e., a control group, a drug-administered group and a fraction 3-administered group, papain 6 was injected in the right knee joint to induce osteoarthritis. The physiological saline in the control group, Diclofenac sodium (DS, 2 mg/kg/bw) in the drug-administered group, and 100 mg/kg/bw {below, called “fraction 3 (100)”} and 200 mg/kg/bw {below, called “fraction 3 (200)”} in the fraction 3-administered group of Example 2 were orally administered once daily at a predetermined time for 20 days. All subjects were lightly anesthetized with ether at the experiment end day to take a heart blood sample. The blood was centrifuged to isolate a serum. […] The contents of tumor necrosis factor-α (TNF-α), interleukin-1β (IL-1β) and interleukin-6 (IL-6) were measured using enzyme-linked immunosorbent assay (ELISA) kit, respectively. The effect of fraction 3 of the inflammatory cytokine IL-1β produced in large quantities in animals where arthritis was induced by injection of papain was measured by ELISA method."}, "[3]": {"system": "animal models of osteoarthritis C57BL/6J mouse", "test": "Osteoarthritis index (histopathology, method of Rudolphi) in papain-induced osteoarthritis", "assay_type": "in vivo", "method": "(§1) 40 eight week-old animal models of osteoarthritis C57BL/6J mouse were purchased from Central Laboratory Animal Inc. (Seoul, Korea), adapted with a general diet for 1 week and then used in the experiments. The temperature and humidity of the breeding room were maintained at 20±2° C., 50±10%, the lightening conditions were such that the light was turned on and off every 12 hours and the light was kept on from 07:00˜19:00. During the experiment, the feedstuff (Orient Bio, Seoul, Korea) and water were to be freely taken.\n(§2) The osteoarthritis was induced by the method given in the test guidelines of the effect of the herbal preparation presented by the Korean Food and Drug Administration. Papain (type IV, double crystallized, 15 units/mg, Sigma, USA) was adjusted to a concentration of 1.0% (w/v) in which 0.03 ML-cystein HCl (Sigma, USA) was supplemented for the activation of papain and then passed through the patellar ligament. […] 6 was administered in the right knee joint to induce osteoarthritis.\nThe experiment animals were adapted in a lab environment for 1 week and then the body weight was measured. Eight animals were assigned to each group to have even body weight. In the normal group, the physiological saline 6 was injected in the right knee joint and then the physiological saline 0.2 ml was orally administered once a day for 20 days. In the treated groups, i.e., a control group, a drug-administered group and a fraction 3-administered group, papain 6 was injected in the right knee joint to induce osteoarthritis. The physiological saline in the control group, Diclofenac sodium (DS, 2 mg/kg/bw) in the drug-administered group, and 100 mg/kg/bw {below, called “fraction 3 (100)”} and 200 mg/kg/bw {below, called “fraction 3 (200)”} in the fraction 3-administered group of Example 2 were orally administered once daily at a predetermined time for 20 days.\nAll subjects were lightly anesthetized with ether at the experiment end day to take a heart blood sample. The blood was centrifuged to isolate a serum. Immediately after taking a heart blood sample, the right hip joint and ankle joint were isolated and removed so as not to damage the knee joint. The tibial of the right knee joint was fixed in 10% neutral formalin solution for 24 hours and then used for the visual observation of the joints.\nThe osteoarthritis index for the observed histopathological lesions in the articular cartilage and synovial membrane was digitalized in accordance with a method of Rudolphi, at al. and is shown in Table 2 below."}, "[4]": {"system": "IL-6", "test": "Interleukin-6 content in blood, ELISA, papain-induced arthritis", "assay_type": "in vivo, mouse", "conditions": "DS 2 mg/kg/bw; fraction 3 100 and 200 mg/kg/bw; oral once daily 20 days", "method": "The experiment animals were adapted in a lab environment for 1 week and then the body weight was measured. Eight animals were assigned to each group to have even body weight. In the normal group, the physiological saline 6 was injected in the right knee joint and then the physiological saline 0.2 ml was orally administered once a day for 20 days. In the treated groups, i.e., a control group, a drug-administered group and a fraction 3-administered group, papain 6 was injected in the right knee joint to induce osteoarthritis. The physiological saline in the control group, Diclofenac sodium (DS, 2 mg/kg/bw) in the drug-administered group, and 100 mg/kg/bw {below, called “fraction 3 (100)”} and 200 mg/kg/bw {below, called “fraction 3 (200)”} in the fraction 3-administered group of Example 2 were orally administered once daily at a predetermined time for 20 days. All subjects were lightly anesthetized with ether at the experiment end day to take a heart blood sample. The blood was centrifuged to isolate a serum. Immediately after taking a heart blood sample, the right hip joint and ankle joint were isolated and removed so as not to damage the knee joint. […] The contents of tumor necrosis factor-α (TNF-α), interleukin-1β (IL-1β) and interleukin-6 (IL-6) were measured using enzyme-linked immunosorbent assay (ELISA) kit, respectively."}, "[5]": {"system": "animal models of osteoarthritis C57BL/6J mouse", "test": "Visual observation of knee joint cartilage surface in papain-induced osteoarthritis", "assay_type": "in vivo", "conditions": "DS 2 mg/kg/bw; fraction 3 100 and 200 mg/kg/bw; oral once daily 20 days", "method": "as §1, §2\nThe experiment animals were adapted in a lab environment for 1 week and then the body weight was measured. Eight animals were assigned to each group to have even body weight. In the normal group, the physiological saline 6 was injected in the right knee joint and then the physiological saline 0.2 ml was orally administered once a day for 20 days. […]"}, "[6]": {"conditions": "Papain + DS 2 mg/kg/bw oral once daily 20 days, group mean"}, "[7]": {"conditions": "Papain + DS 2 mg/kg/bw oral once daily 20 days, individual animals 1-8"}}, "note": "Where “and” joins values, the source holds several entries; their conditions need not be identical. Equal values may be shown once.", "data": [{"compound": "O=C(O)Cc1ccccc1Nc1c(Cl)cccc1Cl", "note": "[DS, Diclofenac sodium]", "values": [{"measurement": "TNF-α content in blood compared with papain-administrated control group", "setting": "[1]", "result": "significantly lower"}, {"measurement": "IL-1β content in blood compared with papain-administrated control group", "setting": "[2]", "result": "significantly lower"}, {"measurement": "osteoarthritis index compared with the papain-administered control group", "setting": "[3]; DS 2 mg/kg/bw, fraction 3 100 and 200 mg/kg/bw, oral once daily 20 days, p<0.05", "result": "significantly lower"}, {"measurement": "Cellularity score, Mean", "setting": "[3]; [6]", "result": 2.0}, {"measurement": "Matrix structure score, Mean", "setting": "[3]; [6]", "result": 2.6}, {"measurement": "Subchondral bone score, Mean", "setting": "[3]; [6]", "result": 1.1}, {"measurement": "Synovial membrane score, Mean", "setting": "[3]; [6]", "result": 1.5}, {"measurement": "Sum of osteoarthric score, Mean", "setting": "[3]; Papain + DS 2 mg/kg/bw oral once daily 20 days, group mean, papain control 19.8", "result": 7.4}, {"measurement": "Cellularity score, per subject", "setting": "[3]; [7]", "result": 2}, {"measurement": "Matrix structure score, per subject", "setting": "[3]; [7]", "result": "1 (3×) and 3 (4×) and 6"}, {"measurement": "Subchondral bone score, per subject", "setting": "[3]; [7]", "result": "3 (3×) and 0 (5×)"}, {"measurement": "Sum of osteoarthric score, per subject", "setting": "[3]; [7]", "result": "6 (2×) and 4 and 11 (2×) and 5 and 8 (2×)"}, {"measurement": "Synovial membrane score, per subject", "setting": "[3]; [7]", "result": "0 (3×) and 1 and 3 (4×)"}, {"measurement": "IL-6 content in blood compared with papain-administrated control group", "setting": "[4]", "result": "significantly lower"}, {"measurement": "visual appearance of knee joint cartilage surface compared with papain-administered group", "setting": "[5]", "result": "the scope of the discoloration was less and the elimination of visual cartilage surface was not observed"}]}]}
